Measured values reported in US8440619B2, “Utilization of hypertension/hypercardia-preventing effect of D-allose” (National University Corporation Kagawa University, priority 2005, dated 2013).

Assays:
[1] = tested on: salt-sensitive Dahl rats with the onset of hypertension (DS); test: Blood pressure by the tail-cuff method in salt-loaded salt-sensitive Dahl rats; type: in vivo, rat; details: 4% salt diet, 2 g daily/kg body weight orally, in 4 weeks
Source text: (§1) Salt-sensitive male Dahl rats of age 7 weeks and with the onset of hypertension (DS) and salt-insensitive male Dahl rats of the same age (DR) were used. The DS rats were fed with a 0.5% salt diet or a 4% salt diet (Oriental Yeast Co., Ltd.) for 4 weeks (individually referred to as 0.5% salt diet group and 4% salt diet group). During the period, D-allose or D-glucose was orally given to the 4% salt diet group at 2 g daily/kg body weight (D-allose group or D-glucose group). The DR rats were fed with the 0.5% salt diet group and used as a normal control group. Blood pressure was measured by the tail-cuff method over time, while before salt loading and on the completion of salt loading, urine was collected for one day. On the last day of the observation period, the thoracic aorta was resected. A part thereof was used to quantify the amount of generated active oxygen in the aorta by the lucigenin method, while another part thereof was used to compare the amount of generated active oxygen between the groups by the dihydroxyethidium (DHE) fluorescence method. So as to assay the expression level of the messenger RNA of the NADPH oxidase involved in the increase of tissue oxidative stress (J Hypertens. 2004; 22:2161-2168), further, the renal cortex and the thoracic aorta were partially stored at −80° C.

[2] = Body weight, organ weight and feed intake in DS rats; type: in vivo, rat; details: 4% salt diet, 2 g daily/kg orally, after 4-week feeding
Source text: as §1

[3] = Urine generation, Na and protein excretion in urine in DS rats; type: in vivo, rat
Source text: as §1

[4] = tested on: active oxygen in rat thoracic aorta; test: Generated active oxygen in thoracic aorta, lucigenin method; type: in vivo; details: DS rats, 4% salt diet, 2 g daily/kg orally, 4 weeks
Source text: as §1, with “C. […] Then, the luminescence was counted with a luminescence reader (BLR-301; Aloka).” for “C.”

[5] = tested on: active oxygen in rat thoracic aorta; test: Generated active oxygen in thoracic aorta, DHE fluorescence method; type: in vivo; details: DS rats, 4% salt diet, 2 g daily/kg orally, 4 weeks
Source text: as §1, with “[…] A 10-μm ring slice piece was prepared from the embedded aorta with a cryostat,” for “So as”, “observe” for “assay”, “intra-tissue localization of ethidium generated from the specific reaction between active oxygen and DHE, along with the intensity” for “expression level”, “luminescence, with a co-focus microscope (Bio-Rad).” for “messenger RNA of the NADPH oxidase involved in the increase of tissue oxidative stress (J Hypertens. 2004; 22:2161-2168), further, the renal cortex and the thoracic aorta were partially stored at −80° C.”

[6] = tested on: p22phox messenger RNA; test: Messenger RNA of NADPH oxidase-composing factor p22phox; type: in vivo, rat; details: DS rats, 4% salt diet, 4 weeks, DR rats = 1.00
Source text: as §1, with “C. The levels of the messenger RNAs of p22phox and Nox analogs (Nox-1, gp91phox, Nox-4) as the NADPH oxidase-composing factors were assayed and compared in between thoracic aorta and renal cortex.” for “C.”

[7] = tested on: gp91phox messenger RNA; test: Messenger RNA of NADPH oxidase-composing factor gp91phox; type: in vivo, rat; details: DS rats, 4% salt diet, 4 weeks, DR rats = 1.00
Source text: as §1, with “C. The levels of the messenger RNAs of p22phox and Nox analogs (Nox-1, gp91phox, Nox-4) as the NADPH oxidase-composing factors were assayed and compared in between thoracic aorta and renal cortex.” for “C.”

[8] = tested on: Nox-1 messenger RNA; test: Messenger RNA of NADPH oxidase-composing factor Nox1; type: in vivo, rat; details: DS rats, 4% salt diet, 4 weeks, DR rats = 1.00
Source text: as §1, with “C. The levels of the messenger RNAs of p22phox and Nox analogs (Nox-1, gp91phox, Nox-4) as the NADPH oxidase-composing factors were assayed and compared in between thoracic aorta and renal cortex.” for “C.”

[9] = tested on: Nox-4 messenger RNA; test: Messenger RNA of NADPH oxidase-composing factor Nox4; type: in vivo, rat; details: DS rats, 4% salt diet, 4 weeks, DR rats = 1.00
Source text: as §1, with “C. The levels of the messenger RNAs of p22phox and Nox analogs (Nox-1, gp91phox, Nox-4) as the NADPH oxidase-composing factors were assayed and compared in between thoracic aorta and renal cortex.” for “C.”

[10] = tested on: spontaneously hypertensive rats (SHR); test: Systolic blood pressure by the tail-cuff method in spontaneously hypertensive rats; type: in vivo, rat; details: 2 g daily/kg orally, 4 weeks
Source text: (§2) Male spontaneously hypertensive rats of age 8 weeks (SHR) and male Wister KYOTO rats (WKY) of the same age were used. SHR was fed with a 0.5% salt diet or a 8% salt diet (Oriental Yeast Co., Ltd.) for 4 weeks (individually referred to as the 0.5% salt diet group and the 8% salt diet group). Additionally, D-allose or D-glucose was orally given to the 0.5% salt diet group and the 8% salt diet group, at 2 g daily/kg body weight (D-allose group or D-glucose group) during the period. WKY was fed with the 0.5% salt diet and used as a normal control group. Systolic blood pressure was measured by the tail-cuff method over time.

[11] = Body weight, heart weight and kidney weight in SHR; type: in vivo, rat; details: 2 g daily/kg orally, 4 weeks
Source text: as §2

[12] = 4% salt diet, 2 g daily/kg orally, after 4-week feeding

| SMILES | diastolic pressure [1] | systolic pressure [1] | Heart weight [2] | Heart/body weight ratio [2] | Kidney weight [2] | Kidney/body weight ratio [2] | Protein excretion in urine [3, 12] | Protein excretion in urine ([3]; before salt loading (baseline)) | active oxygen generation in thoracic aorta (lucigenin method) [4] | signal accumulation in the aorta media nucleus on DHE fluorescence images [5] | p22phox messenger RNA level ([6]; Aorta) | p22phox messenger RNA level ([6]; Renal cortex) | gp91phox messenger RNA level ([7]; Aorta) | gp91phox messenger RNA level ([7]; Renal cortex) | Nox1 messenger RNA level ([8]; Aorta) | Nox1 messenger RNA level ([8]; Renal cortex) | Nox4 messenger RNA level ([9]; Aorta) | Nox4 messenger RNA level ([9]; Renal cortex) | systolic blood pressure ([10]; 0.5% salt diet) | systolic blood pressure ([10]; 8% salt diet) | other results |
| --- | --- | --- | --- | --- | --- | --- | --- | --- | --- | --- | --- | --- | --- | --- | --- | --- | --- | --- | --- | --- | --- |
| O=C[C@H](O)[C@H](O)[C@H](O)[C@H](O)CO [D-allose] | 102±4 mmHg | 135±7 mmHg | 994 ± 28 mg | 2.88 ± 0.07 ×10^−3 | 1389 ± 25 mg | 4.03 ± 0.03 ×10^−3 | 31.3 ± 11.8 mg/day | 9.5 ± 1.2 mg/day | suppressed to the level as observed in the 0.5% salt diet group or the DR normal control group | suppressed | 0.83 ± 0.21 | 1.18 ± 0.20 | 1.34 ± 0.27 | 0.97 ± 0.15 | 0.74 ± 0.22 | 0.88 ± 0.11 | 1.36 ± 0.10 | 1.32 ± 0.22 | 180±5 mmHg | 222±8 mmHg | Heart weight ([11]; 0.5% salt diet): 1042 ± 23 mg; Heart/body weight ratio ([11]; 0.5% salt diet): 3.56 ± 0.05 ×10^−3; Kidney weight ([11]; 0.5% salt diet): 1212 ± 34 mg; Kidney/body weight ratio ([11]; 0.5% salt diet): 4.15 ± 0.08 ×10^−3; Heart weight ([11]; 8% salt diet): 1337 ± 50 mg; Heart/body weight ratio ([11]; 8% salt diet): 4.40 ± 0.06 ×10^−3; Kidney weight ([11]; 8% salt diet): 1387 ± 61 mg; Kidney/body weight ratio ([11]; 8% salt diet): 4.57 ± 0.17 ×10^−3 |
| O=C[C@H](O)[C@@H](O)[C@H](O)[C@H](O)CO [D-glucose] | 125±6 mmHg | 162±5 mmHg | 1066 ± 35 mg | 3.00 ± 0.08 ×10^−3 | 1370 ± 36 mg | 3.85 ± 0.07 ×10^−3 | 85.3 ± 20.5 mg/day | 13.1 ± 3.2 mg/day | no such suppressive effect was observed | never changed | 1.14 ± 0.32 | 1.19 ± 0.06 | 1.90 ± 0.19 | 1.20 ± 0.28 | 0.85 ± 0.24 | 1.03 ± 0.24 | 1.75 ± 0.24 | 1.38 ± 0.16 | 201±7 mmHg | 255±5 mmHg | Heart weight ([11]; 0.5% salt diet): 1180 ± 35 mg; Heart/body weight ratio ([11]; 0.5% salt diet): 3.92 ± 0.15 ×10^−3; Kidney weight ([11]; 0.5% salt diet): 1206 ± 32 mg; Kidney/body weight ratio ([11]; 0.5% salt diet): 3.02 ± 0.02 ×10^−3; Heart weight ([11]; 8% salt diet): 1437 ± 38 mg; Heart/body weight ratio ([11]; 8% salt diet): 4.70 ± 0.13 ×10^−3; Kidney weight ([11]; 8% salt diet): 1342 ± 41 mg; Kidney/body weight ratio ([11]; 8% salt diet): 4.40 ± 0.19 ×10^−3 |
